Measurements reported in BindingDB's records for patent US20260069571 (Redx Pharma, 2026).

Tests used:
[1] = target: T1, Discoidin domain-containing receptor 2 (Homo sapiens, UniProt Q16832); assay: DDR1 and DDR2 Biochemical Assay
T1 sequence (Q16832 whole entry): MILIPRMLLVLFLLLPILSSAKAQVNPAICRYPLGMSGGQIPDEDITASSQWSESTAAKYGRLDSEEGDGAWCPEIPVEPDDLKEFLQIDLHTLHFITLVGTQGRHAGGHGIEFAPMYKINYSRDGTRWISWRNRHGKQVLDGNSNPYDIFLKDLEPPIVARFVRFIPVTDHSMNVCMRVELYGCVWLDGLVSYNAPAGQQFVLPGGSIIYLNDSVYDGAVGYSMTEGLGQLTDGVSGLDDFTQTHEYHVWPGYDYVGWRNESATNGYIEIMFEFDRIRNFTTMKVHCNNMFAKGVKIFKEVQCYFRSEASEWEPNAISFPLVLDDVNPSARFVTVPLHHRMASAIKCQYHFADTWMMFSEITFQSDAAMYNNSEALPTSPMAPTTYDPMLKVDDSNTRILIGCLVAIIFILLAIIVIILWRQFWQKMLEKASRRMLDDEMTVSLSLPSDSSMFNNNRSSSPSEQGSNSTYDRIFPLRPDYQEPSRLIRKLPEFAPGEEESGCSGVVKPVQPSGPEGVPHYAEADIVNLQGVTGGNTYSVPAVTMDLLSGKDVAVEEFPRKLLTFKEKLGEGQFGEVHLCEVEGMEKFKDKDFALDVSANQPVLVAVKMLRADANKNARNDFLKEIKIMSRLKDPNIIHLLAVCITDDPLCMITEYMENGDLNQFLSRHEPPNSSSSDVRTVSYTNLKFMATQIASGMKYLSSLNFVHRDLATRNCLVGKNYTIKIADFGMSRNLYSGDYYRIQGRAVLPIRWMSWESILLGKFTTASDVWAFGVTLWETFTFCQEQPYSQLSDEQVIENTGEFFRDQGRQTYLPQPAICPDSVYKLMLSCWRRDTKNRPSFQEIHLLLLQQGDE
Procedure: (§1) The capacity of compounds to bind to DDR1 and DDR2 was quantified using a LanthaScreen Eu Kinase Binding Assay. Recombinant human DDR1 (2.5 nM; aa440-876 containing a GST tag) and DDR2 (1.75 nM; aa427-855 containing a GST tag) were diluted in assay buffer (50 mM HEPES pH7.3, 10 mM MgCl2, 1 mM EGTA and 0.01% Tween) with various concentrations of compound in a 384-well plate and a volume of 5 uL. After a 30-minute incubation at room temperature, 2.5 uL of Eu-anti GST antibody (diluted to 1 nM in assay buffer) plus Kinase Tracer 178 (diluted in assay buffer to 5 nM for DDR1 and 10 nM for DDR2) were added to the plate. Following 60-minute incubation at room temperature, time-resolved fluorescence was measured on a BMG Labtech PHERAstar plate reader. DMSO (1%) and reference compound (1 μM) were used to generate the Max and Min assay signals, respectively. Data was analysed using a four-parameter logistic model to calculate IC50 values, with at least two independent replicates were performed for each compound.

[2] = target: Epithelial discoidin domain-containing receptor 1 (Homo sapiens, UniProt Q08345); assay: DDR1 and DDR2 Biochemical Assay
Procedure: as §1

Sequence of Epithelial discoidin domain-containing receptor 1 (Q08345 whole entry, the tested form may be a part): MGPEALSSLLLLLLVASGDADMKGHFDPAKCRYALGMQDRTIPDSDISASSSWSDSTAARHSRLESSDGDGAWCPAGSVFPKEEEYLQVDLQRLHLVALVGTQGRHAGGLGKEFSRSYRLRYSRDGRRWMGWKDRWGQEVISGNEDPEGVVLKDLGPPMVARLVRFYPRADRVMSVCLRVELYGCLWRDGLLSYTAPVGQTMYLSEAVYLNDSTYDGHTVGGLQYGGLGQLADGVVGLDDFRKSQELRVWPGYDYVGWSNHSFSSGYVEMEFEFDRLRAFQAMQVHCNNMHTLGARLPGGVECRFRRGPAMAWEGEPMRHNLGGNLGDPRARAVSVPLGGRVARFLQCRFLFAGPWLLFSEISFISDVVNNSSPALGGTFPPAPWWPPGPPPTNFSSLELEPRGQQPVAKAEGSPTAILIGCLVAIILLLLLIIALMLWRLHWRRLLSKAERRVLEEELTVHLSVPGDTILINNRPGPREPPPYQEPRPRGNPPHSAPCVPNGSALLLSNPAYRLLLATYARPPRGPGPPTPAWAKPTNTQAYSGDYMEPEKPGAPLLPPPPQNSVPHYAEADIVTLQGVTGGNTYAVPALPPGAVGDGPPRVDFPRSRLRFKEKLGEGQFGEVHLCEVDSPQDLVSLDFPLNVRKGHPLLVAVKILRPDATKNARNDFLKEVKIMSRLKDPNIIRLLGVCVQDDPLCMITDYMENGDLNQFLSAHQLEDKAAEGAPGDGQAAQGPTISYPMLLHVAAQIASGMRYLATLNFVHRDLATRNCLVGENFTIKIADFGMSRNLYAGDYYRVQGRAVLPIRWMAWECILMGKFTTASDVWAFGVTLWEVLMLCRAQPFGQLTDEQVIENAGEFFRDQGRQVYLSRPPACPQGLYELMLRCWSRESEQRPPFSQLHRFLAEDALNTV

Compound	IC50 [1] [nM]	IC50 [2] [nM]
Cc1n[nH]c2cc(Nc3cccc4c3C(=O)N(CC(=O)NCC(F)(F)F)C4)ccc12 [US20260069571, Example 6]	< 10	< 10
Cn1ncc2cc(Nc3cccc4c3C(=O)N(CC(=O)N3CCCC(C(F)(F)F)C3)C4)ccc21 (stereo not drawn) [US20260069571, Example 12]	–	< 10
